# Data from ChEMBL document CHEMBL1152732, “Pharmacodynamics and pharmacokinetics studies of phenoxazinium derivatives for antimalarial agent” (Bioorg Med Chem, 2009).
# Calls of active or inactive are those of the source. The calls are words filed in the database; no cut-off is given here.
# Assays:
# [1] = tested on: Plasmodium berghei; assay: Antimalarial activity as reduced parasitaemia at day 4 against Plasmodium berghei NK65 infected ICR mice (Mus musculus) at 100 mg/kg/day peroral dose for 3 days; type: functional; parameters: scale not given: the % may be the effect or the level left; settings: route oral
# [2] = tested on: Plasmodium berghei; assay: Antimalarial activity as mean survival days against Plasmodium berghei NK65 infected ICR mice (Mus musculus) at 20 mg/kg/day intraperitoneal dose; type: functional
# [3] = tested on: Plasmodium berghei; assay: Antimalarial activity as mean survival days against Plasmodium berghei NK65 infected ICR mice (Mus musculus) at 100 mg/kg/day peroral dose at day 4; type: functional; settings: route oral
# [4] = tested on: Plasmodium berghei; assay: Antimalarial activity as reduced parasitaemia against Plasmodium berghei NK65 infected ICR mice (Mus musculus) at 20 mg/kg/day intraperitoneal dose at day 4; type: functional; parameters: scale not given: the % may be the effect or the level left
# [5] = tested on: Plasmodium berghei; assay: Antimalarial activity at day 4 against Plasmodium berghei NK65 infected ICR mice (Mus musculus) as reduced parasitaemia at 10 mg/kg/day intraperitoneal dose 24 hrs post infection; type: functional; parameters: scale not given: the % may be the effect or the level left
# [6] = tested on: Plasmodium berghei; assay: Antimalarial activity as reduced parasitaemia against Plasmodium berghei NK65 infected ICR mice (Mus musculus) at 30 mg/kg/day peroral dose at day 4; type: functional; parameters: scale not given: the % may be the effect or the level left; settings: route oral
# [7] = tested on: Plasmodium berghei; assay: Antimalarial activity as mean survival days against Plasmodium berghei NK65 infected ICR mice (Mus musculus) at 10 mg/kg/day intraperitoneal dose 24 hrs post infection; type: functional
# [8] = tested on: Plasmodium berghei; assay: Antimalarial activity as mean survival days against Plasmodium berghei NK65 infected ICR mice (Mus musculus) at 30 mg/kg/day peroral dose; type: functional; settings: route oral
# [9] = Plasma concentration in fasted Wistar rat at 4 mg/kg, po administered as single dose after 2 hrs by HPLC; type: ADME, organism-based; parameters: dose 4 mg/kg, route oral
# [10] = Tmax in Wistar rat at 30 mg/kg, po administered as single dose; type: ADME, organism-based; parameters: dose 30 mg/kg, route oral; settings: in vivo
# [11] = Clearance in Wistar rat at 4 mg/kg, iv administered as single dose; type: ADME, organism-based; parameters: dose 4 mg/kg, route intravenous; settings: in vivo
# [12] = Plasma concentration in Wistar rat at 4 mg/kg, iv administered as single dose after 4 hrs by HPLC; type: ADME, organism-based; parameters: dose 4 mg/kg, route intravenous
# [13] = tested on: Plasmodium berghei; assay: Antimalarial activity as reduced parasitaemia at day 7 against Plasmodium berghei NK65 infected ICR mice (Mus musculus) at 30 mg/kg/day peroral dose for 3 days; type: functional, organism-based
# [14] = Plasma concentration in fasted Wistar rat at 30 mg/kg, po administered as single dose after 1 hr by HPLC; type: ADME, organism-based; parameters: dose 30 mg/kg, route oral
# [15] = Clearance in Wistar rat at 4 mg/kg, po administered as single dose; type: ADME, organism-based; parameters: dose 4 mg/kg, route oral; settings: in vivo
# [16] = Plasma concentration in fasted Wistar rat at 30 mg/kg, po administered as single dose after 2 hrs by HPLC; type: ADME, organism-based; parameters: dose 30 mg/kg, route oral
# [17] = Half life in Wistar rat at 4 mg/kg, po administered as single dose; type: ADME, organism-based; parameters: dose 4 mg/kg, route oral; settings: in vivo
# [18] = Plasma concentration in fasted Wistar rat at 30 mg/kg/day, po after 25 hrs by HPLC; type: ADME, organism-based; parameters: route oral
# [19] = tested on: Plasmodium berghei; assay: (§1) Antimalarial activity as reduced parasitaemia at day 6 against Plasmodium berghei NK65 infected ICR mice (Mus musculus) at 30 mg/kg/day peroral dose for 3 days; type: functional; parameters: scale not given: the % may be the effect or the level left; settings: route oral
# [20] = Clearance in Wistar rat at 30 mg/kg, po administered as single dose; type: ADME, organism-based; parameters: dose 30 mg/kg, route oral; settings: in vivo
# [21] = tested on: Plasmodium berghei; assay: Antimalarial activity as recurrence of parasitaemia at day 5 in Plasmodium berghei NK65 infected ICR mice (Mus musculus) at 4 mg/kg/day peroral dose for 3 days; type: functional, organism-based
# [22] = Oral bioavailability in Wistar rat at 4 mg/kg administered as single dose; type: ADME, organism-based; settings: in vivo
# [23] = Half life in Wistar rat at 30 mg/kg, po administered as single dose; type: ADME, organism-based; parameters: dose 30 mg/kg, route oral; settings: in vivo
# [24] = Plasma concentration in Wistar rat at 4 mg/kg, iv administered as single dose after 10 mins by HPLC; type: ADME, organism-based; parameters: dose 4 mg/kg, route intravenous
# [25] = Selectivity index, ratio of IC50 for rat L6 cells to IC50 for chloroquine and pyrimethamine-resistant Plasmodium falciparum K1; type: toxicity, cell-based; settings: read-out: Ratio IC50
# [26] = Tmax in Wistar rat at 4 mg/kg, po administered as single dose; type: ADME, organism-based; parameters: dose 4 mg/kg, route oral; settings: in vivo
# [27] = tested on: Rattus norvegicus; assay: Apparent volume of distribution in Wistar rat at 4 mg/kg, po administered as single dose; type: ADME, organism-based; parameters: dose 4 mg/kg, route oral; settings: in vivo
# [28] = Plasma concentration in fasted Wistar rat at 4 mg/kg, po administered as single dose after 1 hr by HPLC; type: ADME, organism-based; parameters: dose 4 mg/kg, route oral
# [29] = tested on: Plasmodium falciparum; assay: Antimalarial activity against chloroquine and pyrimethamine-resistant Plasmodium falciparum K1; type: functional, organism-based
# [30] = Apparent volume of distribution in Wistar rat at 4 mg/kg, iv administered as single dose; type: ADME, organism-based; parameters: dose 4 mg/kg, route intravenous; settings: in vivo, read-out: Vz
# [31] = Half life in Wistar rat at 4 mg/kg, iv administered as single dose; type: ADME, organism-based; parameters: dose 4 mg/kg, route intravenous; settings: in vivo
# [32] = Oral bioavailability in Wistar rat at 30 mg/kg administered as single dose; type: ADME, organism-based; settings: in vivo
# [33] = tested on: Plasmodium berghei; assay: Antimalarial activity as reduced parasitaemia against Plasmodium berghei NK65 infected ICR mice (Mus musculus) at 4 mg/kg peroral dose at day 4; type: functional; parameters: scale not given: the % may be the effect or the level left; settings: route oral
# [34] = Plasma concentration in fasted Wistar rat at 30 mg/kg/day, po after 49 hrs by HPLC; type: ADME, organism-based; parameters: route oral
# [35] = tested on: Plasmodium berghei; assay: as §1; type: functional, organism-based
# [36] = tested on: Plasmodium berghei; assay: Antimalarial activity recurrence of parasitaemia in Plasmodium berghei NK65 infected ICR mice (Mus musculus) at 4 mg/kg/day intravenous dose for 3 days; type: functional, organism-based
# [37] = tested on: Plasmodium berghei; assay: Antimalarial activity as reduced parasitaemia against Plasmodium berghei NK65 infected ICR mice (Mus musculus) at 30 mg/kg peroral dose at day 4; type: functional; parameters: scale not given: the % may be the effect or the level left; settings: route oral
# [38] = tested on: Rattus norvegicus; assay: Apparent volume of distribution in Wistar rat at 30 mg/kg, po administered as single dose; type: ADME, organism-based; parameters: dose 30 mg/kg, route oral; settings: in vivo
# [39] = tested on: Plasmodium berghei; assay: Antimalarial activity as reduced parasitaemia against Plasmodium berghei NK65 infected ICR mice (Mus musculus) at 4 mg/kg intravenous dose at day 4; type: functional; parameters: scale not given: the % may be the effect or the level left
# [40] = Plasma concentration in fasted Wistar rat at 30 mg/kg, po after 1 hr by HPLC; type: ADME, organism-based; parameters: dose 30 mg/kg, route oral
# [41] = tested on: Mus musculus; assay: Toxicity in Plasmodium berghei NK65-infected ICR mice (Mus musculus) assessed as death at 20 mg/kg/day, intraperitoneally administered 24 hrs after infection for 3 consecutive days measured 4 days postinfection; type: organism-based; parameters: route intraperitoneal; settings: in vivo, ip, 96 h
smiles,measurement,setting,value
[Cl-].c1cc2nc3ccc(N4CCCC4)cc3[o+]c2cc1N1CCCC1,Activity,[1],95.3%
same,MSD,[2],8.3 days
same,MSD,[3],8.3 days
same,Activity,[4],95.4%
CCN(CC)CCCC(C)Nc1ccnc2cc(Cl)ccc12 (configuration not stated) [CHLOROQUINE],Activity,[5],90.6%
same,Activity,[6],98.4%
same,MSD,[7],22.7 days
same,MSD,[8],9.6 days
CCN(CC)c1ccc2nc3ccc(N4CCSCC4)cc3[o+]c2c1.[Cl-],Activity,[1],66.3%
same,MSD,[2],11.5 days
same,MSD,[3],6.3 days
same,Activity,[4],99.2%
CCCN(CCC)c1ccc2nc3ccc(N4CCSCC4)cc3[o+]c2c1.[Cl-],Activity,[1],68.9%
same,MSD,[2],12.5 days
same,MSD,[3],7 days
same,Activity,[4],96.5%
CCCN(CCC)c1ccc2nc3ccc(N4CCCC4)cc3[o+]c2c1.[Cl-],Activity,[1],99.6%
same,MSD,[2],14.8 days
same,MSD,[3],10 days
same,Activity,[4],95.2%
CCN(CC)c1ccc2nc3ccc(N4CCOCC4)cc3[o+]c2c1.[Cl-],Activity,[1],96.3%
same,MSD,[2],12.3 days
same,MSD,[3],13 days
same,Activity,[4],90%
CN(C)c1ccc2nc3ccc(N4CCCC4)cc3[o+]c2c1.[Cl-],Activity,[1],90.3%
same,MSD,[2],7.8 days
same,MSD,[3],10 days
same,Activity,[4],95.7%
CCN(CC)c1ccc2nc3ccc(N4CCCCC4)cc3[o+]c2c1.[Cl-],concentration at 2 h,[9],158 ng/mL
same,Tmax,[10],0.98 h
same,clearance,[11],44.5 mL/min/kg
same,concentration at 4 h,[12],96.6 ng/mL
same,Activity,[13],inactive
same,concentration at 1 h,[14],658 ng/mL
same,CL/F,[15],43.3 mL/min/kg
same,concentration at 2 h,[16],158 ng/mL
same,half-life,[17],9.84 h
same,concentration at 25 h,[18],420 ng/mL
same,Activity,[19],90%
same,CL/F,[20],43.3 mL/min/kg
same,Activity,[21],inactive
same,bioavailability,[22],89.6%
same,half-life,[23],10.3 h
same,Activity,[1],97.8%
same,concentration at 10 min,[24],468 ng/mL
same,selectivity ratio,[25],2390
same,Tmax,[26],0.99 h
same,Vz,[27],36.9 L/kg
same,concentration at 1 h,[28],658 ng/mL
same,IC50,[29],2.69 nM
same,MSD,[2],23.3 days
same,Vd,[30],35.3 L/kg
same,half-life,[31],8.82 h
same,bioavailability,[32],60.7%
same,Activity,[33],76%
same,concentration at 49 h,[34],583 ng/mL
same,Activity,[35],Active
same,MSD,[3],12.7 days
same,Activity,[36],inactive
same,Activity,[37],96.2%
same,Vz,[38],38.5 L/kg
same,Activity,[39],85.9%
same,Activity,[4],95.9%
same,concentration at 1 h,[40],299 ng/mL
CCCCCN(CCCCC)c1ccc2nc3ccc(N4CCCCC4)cc3[o+]c2c1.[Cl-],Activity,[41],Toxic
CN(C)c1ccc2nc3ccc(N4CCCCC4)cc3[o+]c2c1.[Cl-],Activity,[1],97.8%
same,MSD,[2],15.5 days
same,MSD,[3],7.6 days
same,Activity,[4],96.4%
CCCN(CCC)c1ccc2nc3ccc(N4CCOCC4)cc3[o+]c2c1.[Cl-],Activity,[1],99.5%
same,MSD,[2],18 days
same,MSD,[3],10 days
same,Activity,[4],95.7%
CCCN(CCC)c1ccc2nc3ccc(N4CCCCC4)cc3[o+]c2c1.[Cl-],Activity,[1],97.6%
same,MSD,[2],12.3 days
same,MSD,[3],10.3 days
same,Activity,[4],93.2%
CCCCCCN(CCCCCC)c1ccc2nc3ccc(N4CCCCC4)cc3[o+]c2c1.[Cl-],Activity,[41],Toxic
CCCCN(CCCC)c1ccc2nc3ccc(N4CCCCC4)cc3[o+]c2c1.[Cl-],Activity,[41],Toxic
CN(C)c1ccc2nc3ccc(N4CCSCC4)cc3[o+]c2c1.[Cl-],Activity,[1],84.9%
same,MSD,[2],9.8 days
same,MSD,[3],11.3 days
same,Activity,[4],94.5%
[Cl-].c1cc2nc3ccc(N4CCCCC4)cc3[o+]c2cc1N1CCCCC1,Activity,[1],99.8%
same,MSD,[2],16.8 days
same,MSD,[3],11.3 days
same,Activity,[4],97.2%
